Where a name gives a salt, the structure may show the parent alone. Read-outs that look alike come from different tables or passages of the source.
Assays:
colon cancer SW480 = assay: MTT cytotoxicity, colon cancer SW480; format: cell-based
Lung cancer Lewis = assay: MTT cytotoxicity, lung cancer Lewis; format: cell-based
normal mice = assay: in vivo; conditions: Table 3; mice, single intravenous administration, 14 days observation
Protocol: (§1) Kunming mice with 4˜6 weeks old and 18 g˜22 g by weight were taken, 50% males and 50% females. […] The condition of mortality and toxicity were observed after administration. Totally observing for 14 days, LD50 value was calculated using Bliss method according to the mortality.

Lung cancer H292 = assay: MTT cytotoxicity, lung cancer H292; format: cell-based
[1] = test system: Alveolar epithelial cells BEAS-2B; assay: MTT cytotoxicity, alveolar epithelial cells BEAS-2B; format: cell-based
Lung cancer A549 = assay: MTT cytotoxicity, lung cancer A549; conditions: read-out: cytotoxicity IC50; Lung cancer A549, MTT, n = 6, Table 4
Protocol: Cell morphologies were observed after being cultivated for 24 hours.

[2] = test system: Breast cancer MCF-7 cisplatin resistance strain; assay: MTT cytotoxicity, breast cancer MCF-7 cisplatin resistance strain; format: cell-based; conditions: n = 6
Breast cancer MCF-7 = assay: MTT cytotoxicity, breast cancer MCF-7; format: cell-based; conditions: Breast cancer MCF-7, MTT, n = 6
gastric cancer MGC803 = assay: MTT cytotoxicity, gastric cancer MGC803; format: cell-based; conditions: n = 6
[3] = existing platinum drugs, background section; cited from earlier work
Testis cell ST = assay: MTT cytotoxicity, testis cell ST; format: cell-based; conditions: n = 6
Esophagus cancer ECA109 = assay: MTT cytotoxicity, esophagus cancer ECA109; format: cell-based; conditions: n = 6
in vivo = conditions: both, Kunming, mouse, in vivo, iv
Protocol: as §1

[4] = MTT cytotoxicity, alveolar epithelial cells BEAS-2B; format: cell-based; conditions: human, BEAS-2B alveolar epithelial cells; Alveolar epithelial cells BEAS-2B, MTT, n = 6
[5] = MTT cytotoxicity, testis cell ST; format: cell-based; conditions: pig, ST testis cells, n = 6
[6] = Lung cancer H292, MTT, n = 6, read-out: cytotoxicity IC50
[7] = compound of the example (salt form) in water
[8] = colon cancer SW480, MTT, n = 6, read-out: cytotoxicity IC50
[9] = Lung cancer Lewis, MTT, n = 6, read-out: cytotoxicity IC50
[10] = Alveolar epithelial cells BEAS-2B, MTT, n = 6, read-out: cytotoxicity IC50

With “2-(4-di-n-propylaminobutyl)-malonate•cis-diamine platinum (II) phosphate [Compound 7]” the IC50 (colon cancer SW480) was 10 µM, the IC50 (Lung cancer Lewis) was 21 µM and the “LD50 vALUE” (normal mice) was 0.778 mmol/kg. The IC50 (Lung cancer H292) was 4 µM and the IC50 [1] was 4 µM.
With “2-(4-ethyl aminobutyl)-malonate•cis-(1, 2-trans-cyclohexanediamine) platinum (II) phosphate [Compound 12]” the IC50 (colon cancer SW480) was 18 µM, the IC50 (Lung cancer Lewis) was 18 µM and the “LD50 vALUE” (normal mice) was 0.729 mmol/kg. For the same compound, the IC50 (Lung cancer H292) was 6 µM and the IC50 [1] was 8 µM.
For `CCN(CC)CCCCC1C(=O)[O][Pt]2([NH]C3CCCCC3[NH]2)[O]C1=O.Cc1ccc(S(=O)(=O)O)cc1` (racemic) [Compound 3, 2-(4-diethylaminobutyl)-malonate•cis-(1,2-trans-cyclohexanediamine) platinum (II) tosilate], the IC50 (Lung cancer A549) was 8 µM, the IC50 [2] was 21 µM and the “LD50 vALUE” (normal mice) was 0.815 mmol/kg. The IC50 (Lung cancer H292; [6]) was 6 µM and the IC50 (Breast cancer MCF-7) was 7 µM.
For `Cc1ccc(S(=O)(=O)O)cc1.O=C1[O][Pt]2([NH]C3CCCCC3[NH]2)[O]C(=O)C1CCCCN1CCCCC1` (racemic) [Compound 9, 2-(4-(1-piperidyl)-butyl)-malonate•cis-(1,2-trans-cyclohexanediamine) platinum (II) tosilate], the IC50 (colon cancer SW480) was 14 µM, the IC50 (Lung cancer Lewis) was 50 µM and the “LD50 vALUE” (normal mice) was 0.725 mmol/kg. It also gave an IC50 (Lung cancer H292) of 8 µM and an IC50 [1] of 2 µM.
In the case of `NCCCCC1C(=O)[O][Pt]2([NH]C3CCCCC3[NH]2)[O]C1=O.O=P(O)(O)O` (racemic) [Compound 11, 2-(4-aminobutyl)-malonate•cis-(1,2-trans-cyclohexanediamine) platinum (II) phosphate], the IC50 (colon cancer SW480) is reported as 21 µM, the IC50 (Lung cancer Lewis) is reported as 49 µM and the “LD50 vALUE” (normal mice) is reported as 0.803 mmol/kg. It also gave an IC50 (Lung cancer H292) of 5 µM and an IC50 [1] of 2 µM.
With `CCN(CC)CCCCC1C(=O)[O][Pt]2([NH]C3CCCC3[NH]2)[O]C1=O.O=P(O)(O)O` (racemic) [Compound 14, 2-(4-diethylaminobutyl)-malonate•cis-(1,2-trans-cyclopentanediamine) platinum (II) phosphate] the solubility (Solubility in water; [7]) was “more than 300 mg/ml”, the IC50 (colon cancer SW480; [8]) was 17 µM and the IC50 (Lung cancer Lewis; [9]) was 36 µM. The “LD50 vALUE” (normal mice) was 0.866 mmol/kg, the IC50 (Lung cancer H292; [6]) was 12 µM and the IC50 [1, 10] was 5 µM.
In the case of `N.N.O=C([O-])C1(C(=O)[O-])CCC1.[Pt+2]` [Carboplatin, cis-1,1-cyclobutanedicarboxylatodiamminoplatinum, reference compound], the IC50 (Lung cancer A549) is reported as 232 µM, the IC50 (gastric cancer MGC803) is reported as 625 µM and the IC50 (colon cancer SW480; [8]) is reported as 87 µM. The IC50 (Lung cancer Lewis; [9]) was 38 µM, the IC50 [2] was 255 µM and the solubility [3] was 17.8 mg/mL. The “LD50 vALUE” (normal mice) was 0.336 mmol/kg, the IC50 (Lung cancer H292; [6]) was 55 µM and the IC50 (Testis cell ST) was 195 µM. It also gave an IC50 (Esophagus cancer ECA109) of 52 µM, an IC50 [1, 10] of 37 µM and an IC50 (Breast cancer MCF-7) of 103 µM.
For `CCN(CC)CCCCC1C(=O)[O][Pt]([NH2])([NH2])[O]C1=O` [Compound 1, 2-(4-diethylaminobutyl)-malonate•cis-diamine platinum (II) acetate], the solubility (Solubility in water; water) was greater than 300 mg/mL and the LD50 (in vivo) was 746 µmol/kg.
With `[NH2][Pt]1([NH2])[O]C(=O)C(CCCCN2CCCCC2)C(=O)[O]1` [Compound 4, 2-(4-(1-piperidyl)-butyl)-malonate•cis-diamine platinum (II) phosphate] the solubility (Solubility in water; water) was greater than 300 mg/mL and the LD50 (in vivo) was 823 µmol/kg.
`[NH2][Pt]1([NH2])[O]C(=O)C(CCCCN2CCCC2)C(=O)[O]1` [Compound 5, 2-(4-(1-tetrahydropyrrolidinyl)-butyl)-malonate•cis-diamine platinum (II) phosphate] showed a solubility (Solubility in water; water) greater than 300 mg/mL, an LD50 (in vivo) of 845 µmol/kg and an IC50 [4] of 2 µM.
In the case of `CN(C)C1CC(C2C(=O)[O][Pt]([NH2])([NH2])[O]C2=O)C1` (stereo not drawn) [Compound 6, 2-(3-dimethylaminocyclobutyl)-malonate•cis-diamine platinum (II) mesylate], the solubility (Solubility in water; water) is reported as greater than 300 mg/mL, the LD50 (in vivo) is reported as 756 µmol/kg and the IC50 [4] is reported as 3 µM.
In the case of `CCN(CC)CC(C)CCC1C(=O)[O][Pt]([NH2])([NH2])[O]C1=O` (stereo not drawn) [Compound 8, 2-(3-methyl-4-diethylaminobutyl)-malonate•cis-diamine platinum (II) acetate], the solubility (Solubility in water; water) is reported as greater than 300 mg/mL, the LD50 (in vivo) is reported as 801 µmol/kg and the IC50 [4] is reported as 5 µM.
`CC1CCCN1CCCCC1C(=O)[O][Pt]([NH2])([NH2])[O]C1=O` (stereo not drawn) [Compound 10, 2-(4-(2-methyl-1-tetrahydropyrrolidinyl)-butyl)-malonate•cis-diamine platinum (II) phosphate] gave a solubility (Solubility in water; water) greater than 300 mg/mL, an LD50 (in vivo) of 791 µmol/kg and an IC50 [4] of 3 µM.
With `CCN(CC)CCCCC1C(=O)[O][Pt][O]C1=O.NC1CCC(N)CC1.O=P(O)(O)O` [Compound 23, 2-(4-diethylaminobutyl)-malonate•cis-1,4-cyclohexanediamine platinum (II) phosphate] the solubility (Solubility in water; [7]) was “more than 300 mg/ml”, the IC50 (gastric cancer MGC803) was 5 µM and the IC50 (Lung cancer H292; [6]) was 14 µM. It also gave an IC50 (Testis cell ST) of 8 µM and an IC50 (Esophagus cancer ECA109) of 66 µM.
In the case of `CCN(CC)CCCCC1C(=O)[O][Pt]2([NH]CC3(CCOCC3)C[NH]2)[O]C1=O.O=P(O)(O)O` [Compound 24, 2-(4-diethylaminobutyl)-malonate•cis-1,3-(2,2-(4-oxacyclohexyl))-propanediamine•platinum (II) phosphate], the solubility (Solubility in water; [7]) is reported as “more than 300 mg/ml”, the IC50 (gastric cancer MGC803) is reported as 3 µM and the IC50 (Lung cancer H292; [6]) is reported as 3 µM. The IC50 (Testis cell ST) was 6 µM and the IC50 (Esophagus cancer ECA109) was 52 µM.
`CCN(CC)CCCCC1C(=O)[O][Pt]([NH2])([N]2CCCCC2)[O]C1=O` (stereo not drawn) [Compound 28, 2-(4-diethylaminobutyl)-malonate•cis-ammonia•piperidine platinum (II) acetate] showed a solubility (Solubility in water; water) greater than 300 mg/mL, an LD50 at 14 days (in vivo) of 725 µmol/kg and an IC50 [5] of 61 µM.
